Experimental data published in BigSolDB 2.1.

CNC[C@H](O)c1cccc(O)c1.Cl
solubility (mole fraction)
Settings	in 2-butoxyethanol	in 2-ethoxyethanol	in 2-methoxyethanol	in 2-propoxyethanol	in DMF	in NMP	in ethanol	in isopropanol	in methanol	in n-propanol
278.15 K	0.00496	0.0254	0.114	0.00782	0.185	0.154	0.0138	0.00201	0.0715	0.00469
283.15 K	0.00611	0.0305	0.122	0.01	0.198	0.161	0.0168	0.00251	0.0811	0.00586
288.15 K	0.00811	0.0386	0.131	0.0132	0.21	0.169	0.0195	0.00335	0.09	0.00728
293.15 K	0.0102	0.0465	0.14	0.0162	0.222	0.178	0.0233	0.00409	0.101	0.00905
298.15 K	0.0126	0.0553	0.147	0.0195	0.236	0.186	0.0287	0.00492	0.111	0.0107
303.15 K	0.016	0.0654	0.161	0.0244	0.251	0.198	0.034	0.0062	0.123	0.0133
308.15 K	0.0195	0.0761	0.171	0.0304	0.265	0.208	0.0404	0.00768	0.136	0.0163
313.15 K	0.0248	0.0903	0.183	0.0376	0.284	0.22	0.047	0.00931	0.15	0.0196
318.15 K	0.0306	0.106	0.195	0.0462	0.299	0.232	0.0554	0.0113	0.165	0.0236
323.15 K	0.0372	0.122	0.21	0.0566	0.315	0.246	0.0654	0.0138	0.182	0.0282
